What all share (assay type): cell-based
The test system of one experiment is E. coli DH5α. The experiment in a line: Antibacterial activity: MIC and growth curve against E. coli DH5α in 96-well plate. The conditions noted are these: minimal inhibitory concentration against E. coli DH5α; 96-well plate, 5×10^5 CFU/mL, 37° C., judged after 8 h. The method in brief:
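Log-phase DH5α (OD600 about 0.5, 37° C, 185 rpm in LB) was pelleted, resuspended in fresh LB and seeded at 5×10^5 CFU/mL with recombinant protein at 50, 25 and 12.5 μg/mL (two-fold series), in triplicate. Plates were shaken at 175 rpm, 37° C, and OD600 was read every 30 min. MIC was the lowest concentration with no growth.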

The next experiment relates to E. coli BL21. Description: MIC against Gram-negative bacteria: E. coli BL21. The settings on record: 5×10^5 CFU/mL. The method in brief: (§1)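 Broth microdilution, LB medium, final inoculum 5×10^5 CFU/mL from McFarland 0.5 cultures. Recombinant human EGF domain proteins tested in two-fold steps, n=3. MIC: lowest concentration, no growth.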
The subject of another experiment is Pseudomonas aeruginosa. Description: MIC against Gram-negative bacteria: Pseudomonas aeruginosa. The conditions noted are these: 5×10^5 CFU/mL; for MIC against P. aeruginosa: Pseudomonas aeruginosa. In short, it runs like this: as §1
The next experiment deals with Klebsiella pneumonia. The experiment in a line: MIC against Gram-negative bacteria: Klebsiella pneumonia. The settings on record: 5×10^5 CFU/mL; for MIC against K. pneumonia: Klebsiella pneumonia. In short, it runs like this:
as §1

The next experiment relates to Enterobacter cloacae. Description: MIC against Gram-negative bacteria: Enterobacter cloacae. The settings on record: 5×10^5 CFU/mL; for MIC against E. cloacae: Enterobacter cloacae. The method in brief: as §1
A further experiment deals with Aeromonas hydrophila. Description: MIC against Gram-negative bacteria: Aeromonas hydrophila. The settings on record: 5×10^5 CFU/mL; for MIC against A. hydrophila: Aeromonas hydrophila. The method in brief: as §1
The test system of another experiment is Citrobacter diversus. The experiment in a line: MIC against Gram-negative bacteria: Citrobacter diversus. The conditions noted are these: 5×10^5 CFU/mL; for MIC against C. diversus: Citrobacter diversus. In short, it runs like this:
as §1

In a further experiment the test system is Moraxella catarrhalis. Description: MIC against Gram-negative bacteria: Moraxella catarrhalis. The settings on record: 5×10^5 CFU/mL; for MIC against M. catarrhalis: Moraxella catarrhalis. The method in brief:
as §1

A further experiment concerns Proteus mirabilis. Description: MIC against Gram-negative bacteria: Proteus mirabilis. The conditions noted are these: 5×10^5 CFU/mL; for MIC against P. mirabilis: Proteus mirabilis. The method in brief: as §1
The next experiment concerns Proteus vulgaris. Description: MIC against Gram-negative bacteria: Proteus vulgaris. The conditions noted are these: 5×10^5 CFU/mL; for MIC against P. vulgaris: Proteus vulgaris. The method in brief:
as §1

The next experiment relates to Serratia marcescens. Description: MIC against Gram-negative bacteria: Serratia marcescens. The conditions noted are these: 5×10^5 CFU/mL; for MIC against S. marcescens: Serratia marcescens. In short, it runs like this:
as §1

Setting [1] is: E. coli BL21, 96-well plate, 37° C., 10 h.
Where [2] appears, read: E. coli BL21, 10 h cultivation at 37° C.
Setting [3] is: 10 h cultivation at 37° C., two-fold serial dilution.

5 substances from US9833497B2, “Human originated EGF domain proteins and use of the same” (CHENGDU SOURCEBIO LIMITED-LIABILITY COMPANY, priority 2013, dated 2017) can be followed below.

Regarding “PRT1309 (EVDPCAHGHGGCSPHANCTKVAPGQRTCTCQDGYMGDGELCQ; listed as Homo sapiens)”, the MIC in the experiment on E. coli DH5α stood at 12.5 µg/mL. Further, the “MIC against E. coli BL21” value against E. coli BL21 (setting [1]) is 50 µg/mL. Also, the “MIC against P. aeruginosa” value against Pseudomonas aeruginosa (96-well plate, 37° C., 10 h) came to 12.5 µg/mL. Further, the “MIC against K. pneumonia” value in the experiment on Klebsiella pneumonia (96-well plate, 37° C., 10 h) was 50 µg/mL. Further, in the experiment on Enterobacter cloacae (96-well plate, 37° C., 10 h), the “MIC against E. cloacae” value came to 12.5 µg/mL. Besides, in the experiment on Aeromonas hydrophila (96-well plate, 37° C., 10 h), the “MIC against A. hydrophila” value came to 50 µg/mL. The “MIC against C. diversus” value in the experiment on Citrobacter diversus (96-well plate, 37° C., 10 h) stood at 25 µg/mL. For the same substance, the “MIC against M. catarrhalis” value in the experiment with Moraxella catarrhalis (96-well plate, 37° C., 10 h) is 12.5 µg/mL. Further, the “MIC against P. mirabilis” value with Proteus mirabilis (96-well plate, 37° C., 10 h) is 25 µg/mL. For the same substance, the “MIC against P. vulgaris” value in the experiment on Proteus vulgaris (96-well plate, 37° C., 10 h) is 50 µg/mL. The “MIC against S. marcescens” value against Serratia marcescens (96-well plate, 37° C., 10 h) was 25 µg/mL.
“PRT1275 (EGMNCMNKNHGCAHICRETPKGGIACECRPGFELTKNQRDCK; listed as Homo sapiens)” gave a minimum inhibitory concentration (MIC) against E. coli DH5α of 12.5 µg/mL. Also, the “MIC against E. coli BL21” value in the experiment on E. coli BL21 (setting [1]) stood at 50 µg/mL. The “MIC against P. aeruginosa” value against Pseudomonas aeruginosa (96-well plate, 37° C., 10 h) was found to be 12.5 µg/mL. Also, in the experiment on Klebsiella pneumonia (96-well plate, 37° C., 10 h), the “MIC against K. pneumonia” value is 50 µg/mL. Besides, the “MIC against E. cloacae” value with Enterobacter cloacae (96-well plate, 37° C., 10 h) was found to be 12.5 µg/mL. For the same substance, in the experiment on Aeromonas hydrophila (96-well plate, 37° C., 10 h), the “MIC against A. hydrophila” value worked out at 50 µg/mL. Moreover, in the experiment on Citrobacter diversus (96-well plate, 37° C., 10 h), the “MIC against C. diversus” value stood at 50 µg/mL. For the same substance, in the experiment on Moraxella catarrhalis (96-well plate, 37° C., 10 h), the “MIC against M. catarrhalis” value came out at 12.5 µg/mL. Further, the “MIC against P. mirabilis” value in the experiment on Proteus mirabilis (96-well plate, 37° C., 10 h) is 50 µg/mL. Further, in the experiment with Proteus vulgaris (96-well plate, 37° C., 10 h), the “MIC against P. vulgaris” value stood at 25 µg/mL. Besides, the “MIC against S. marcescens” value against Serratia marcescens (96-well plate, 37° C., 10 h) worked out at 12.5 µg/mL.
As to “PRT755 (AVDYCASENHGCEHECVNADGSYLCQCHEGFALNPDKKTCT; listed as Homo sapiens)”, the MIC against E. coli DH5α worked out at 12.5 µg/mL. Further, the “MIC (μg/mL) E. coli BL21” value with E. coli BL21 (setting [2]) stood at 50 µg/mL. Further, the “MIC (μg/mL) P. aeruginosa” value against Pseudomonas aeruginosa (P. aeruginosa, 10 h cultivation at 37° C.) was found to be 12.5 µg/mL. In addition, the “MIC (μg/mL) K. pneumonia” value in the experiment with Klebsiella pneumonia (K. pneumonia, 10 h cultivation at 37° C.) came to 50 µg/mL. In addition, the “MIC (μg/mL) E. cloacae” value in the experiment with Enterobacter cloacae (E. cloacae, 10 h cultivation at 37° C.) stood at 12.5 µg/mL. Also, the “MIC (μg/mL) A. hydrophila” value in the experiment with Aeromonas hydrophila (A. hydrophila, 10 h cultivation at 37° C.) was 50 µg/mL. In addition, in the experiment with Citrobacter diversus (C. diversus, 10 h cultivation at 37° C.), the “MIC (μg/mL) C. diversus” value was 12.5 µg/mL. In addition, the “MIC (μg/mL) M. catarrhalis” value in the experiment on Moraxella catarrhalis (M. catarrhalis, 10 h cultivation at 37° C.) stood at 50 µg/mL. The “MIC (μg/mL) P. mirabilis” value in the experiment on Proteus mirabilis (P. mirabilis, 10 h cultivation at 37° C.) was determined as 12.5 µg/mL. Further, the “MIC (μg/mL) P. vulgaris” value with Proteus vulgaris (P. vulgaris, 10 h cultivation at 37° C.) came to 12.5 µg/mL. In addition, the “MIC (μg/mL) S. marcescens” value in the experiment with Serratia marcescens (S. marcescens, 10 h cultivation at 37° C.) was 25 µg/mL.
Substance “PRT1415 (PRATCLDQCSGHGTFLPDTGLCSCDPSWTGHDCS; listed as Homo sapiens)” yielded an MIC in the experiment on E. coli DH5α of 25 µg/mL. Also, in the experiment with E. coli BL21 (setting [2]), the “MIC against E. coli BL21” value is 12.5 µg/mL. For the same substance, the “MIC against P. aeruginosa” value against Pseudomonas aeruginosa (10 h cultivation at 37° C.) was 25 µg/mL. In addition, the “MIC against K. pneumonia” value against Klebsiella pneumonia (10 h cultivation at 37° C.) worked out at 12.5 µg/mL. Further, in the experiment with Enterobacter cloacae (10 h cultivation at 37° C.), the “MIC against E. cloacae” value came to 25 µg/mL. In the experiment on Aeromonas hydrophila (10 h cultivation at 37° C.), the “MIC against A. hydrophila” value was 25 µg/mL. Moreover, the “MIC against C. diversus” value in the experiment with Citrobacter diversus (10 h cultivation at 37° C.) came out at 50 µg/mL. Also, in the experiment on Moraxella catarrhalis (10 h cultivation at 37° C.), the “MIC against M. catarrhalis” value is 25 µg/mL. The “MIC against P. mirabilis” value in the experiment with Proteus mirabilis (10 h cultivation at 37° C.) was 12.5 µg/mL. For the same substance, the “MIC against P. vulgaris” value in the experiment with Proteus vulgaris (10 h cultivation at 37° C.) amounted to 25 µg/mL. In the experiment with Serratia marcescens (10 h cultivation at 37° C.), the “MIC against S. marcescens” value was 50 µg/mL.
In turn, “PRT1085 (HARKCNETAKSYCVNGGVCYYIEGINQLSCKCPNGFFGQRCL; listed as Homo sapiens)” displayed an MIC in the experiment with E. coli DH5α of 25 µg/mL. Moreover, in the experiment on E. coli BL21 (setting [3]), the “MIC E. coli BL21” value came to 12.5 µg/mL. Further, the “MIC P. aeruginosa” value in the experiment with Pseudomonas aeruginosa (setting [3]) was 12.5 µg/mL. Moreover, the “MIC K. pneumonia” value against Klebsiella pneumonia (setting [3]) was 50 µg/mL. Also, the “MIC E. cloacae” value with Enterobacter cloacae (setting [3]) turned out to be 12.5 µg/mL. Moreover, the “MIC A. hydrophila” value against Aeromonas hydrophila (setting [3]) stood at 50 µg/mL. Further, the “MIC C. diversus” value in the experiment on Citrobacter diversus (setting [3]) stood at 12.5 µg/mL. Besides, the “MIC M. catarrhalis” value in the experiment with Moraxella catarrhalis (setting [3]) was determined as 50 µg/mL. The “MIC P. mirabilis” value against Proteus mirabilis (setting [3]) was found to be 12.5 µg/mL. For the same substance, the “MIC P. vulgaris” value in the experiment with Proteus vulgaris (setting [3]) is 50 µg/mL. The “MIC S. marcescens” value with Serratia marcescens (setting [3]) was 25 µg/mL.

One may read the MIC as the lowest concentration that inhibits growth of the organism. Higher therefore signals a need for much substance.
